Measurements taken from US10576039B2, “Ophthalmic formulation comprising citicoline carried by liposome for the treatment of glaucoma” (Omikron Italia S.r.l., priority 2016, dated 2020).

Experiments:
[1] = Citicoline in vitreous humour and blood by HPLC after topical instillation of liposome solution; type: in vivo, male mice of Wistar-Kyoto strain
Description: For the experimental group 12 animals were used for an adequate statistical management of the results (average, standard deviation and significance).
The used number of animals, following statistical evaluation, represents the minimum number therefrom it is possible to obtain significant data. In the study male mice of Wistar-Kyoto strain were used according to previous experiments performed by the research group.
The animals were kept and manipulated in a structure suitable for keeping the animals under optimum conditions (temperature, humidity, ventilation, hygienic conditions). In the study a formulation in solution for ophthalmic use was utilized constituted by […] liposomes including 2% citicoline sodium salt. […]
Moreover on each animal an endocardial blood sample was taken after total anaesthesia both before and after treatment, just before being sacrificed, by using a test tube with EDTA; on such sample, for each animal, the blood count and citicoline presence were determined. […]
After extraction and subsequent centrifugation at 13,000 rpm for 5 minutes at 5° C. the supernatant was taken and injected into a HPLC system equipped with a ultraviolet detector Diode Array and chromatographic column C18—Kromasil 250×4.6 mm with 5-μm particles. Of course, all samples, even the checks, were subjected to the same kind of treatment before being analysed in HPLC. […]

[2] = taken orally, cited from earlier work

In the case of `C[N+](C)(C)CCOP(=O)(O)OP(=O)([O-])OC[C@H]1O[C@@H](n2ccc(N)nc2=O)[C@H](O)[C@@H]1O` [Citicoline, cytidine-5′-diphosphocholine], the “vitreous humour citicoline as % of the amount applied topically” value ([1]; eyes treated topically with liposome solution for three days) is given as 13%, the “presence/penetration of citicoline in the vitreous humour (in words)” value ([1]; topical treatment, HPLC elution profile, comparison with citicoline administered in solution (Parisi et al., 2015; Roberti et al., 2015)) is given as “present in high concentrations” and the “time of plasma peak after ingestion” value ([2]; first peak) is given as 1 h. For the same compound, the “time of larger second plasma peak” value ([2]; later peak) was 24 h and the “fraction excreted in the feces” value [2] was “less than 1%”.
